{
  "source": "patent US20260285850A1",
  "about": "“SUBSTITUTED OXAZOLIDINONES AND IMIDAZOLINONES AS HERBICIDES” (FMC CORPORATION, priority 2023, published 2026)",
  "format_in_all_cases": "in vivo",
  "key": {"[1]": {"tested_on": "galium (catchweed bedstraw, Galium aparine)", "assay": "Test A postemergence application, visual injury rating 0-100", "procedure,_shortened": "(§1)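 Visual injury, scored 0-100 (100 = complete control) against untreated plants, 10 days after greenhouse treatment. Test chemicals in surfactant-containing non-phytotoxic solvent were applied in loam soil and sand, as a preemergence soil spray on seeds or postemergence to plants at the one- to two-leaf stage.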"}, "[2]": {"tested_on": "horseweed (Erigeron canadensis)", "assay": "Test A postemergence application, visual injury rating 0-100", "procedure,_shortened": "as §1"}, "kochia (Bassia scoparia) [3]": {"tested_on": "kochia (Bassia scoparia)", "assay": "Test A postemergence application, visual injury rating 0-100", "procedure,_shortened": "as §1"}, "soybean (Glycine max) [4]": {"tested_on": "soybean (Glycine max)", "assay": "Test A postemergence application, visual injury rating 0-100", "procedure,_shortened": "as §1"}, "[5]": {"tested_on": "ragweed (common ragweed, Ambrosia artemisiifolia)", "assay": "Test A postemergence application, visual injury rating 0-100", "procedure,_shortened": "as §1"}, "[6]": {"tested_on": "blackgrass (Alopecurus myosuroides)", "assay": "Test A postemergence application, visual injury rating 0-100", "procedure,_shortened": "as §1"}, "[7]": {"tested_on": "wheat (Triticum aestivum)", "assay": "Test A postemergence application, visual injury rating 0-100", "procedure,_shortened": "as §1"}, "[8]": {"tested_on": "palmer (palmer amaranth, palmer pigweed, Amaranthus palmeri)", "assay": "Test A postemergence application, visual injury rating 0-100", "procedure,_shortened": "as §1"}, "[9]": {"tested_on": "barnyardgrass (Echinochloa crus-galli)", "assay": "Test A postemergence application, visual injury rating 0-100", "procedure,_shortened": "as §1"}, "corn (Zea mays) [10]": {"tested_on": "corn (Zea mays)", "assay": "Test A postemergence application, visual injury rating 0-100", "procedure,_shortened": "as §1"}, "[11]": {"tested_on": "green foxtail (Setaria viridis)", "assay": "Test A postemergence application, visual injury rating 0-100", "procedure,_shortened": "as §1"}, "[12]": {"tested_on": "ryegrass, Italian (italian ryegrass, Lolium multiflorum)", "assay": "Test A postemergence application, visual injury rating 0-100", "procedure,_shortened": "as §1"}, "[13]": {"tested_on": "oat, wild (wild oat, Avena fatua)", "assay": "Test A postemergence application, visual injury rating 0-100", "procedure,_shortened": "as §1"}, "[14]": {"tested_on": "sedge, umbrella (small-flower umbrella sedge, Cyperus difformis)", "assay": "Test B flooded paddy test, visual plant response rating 0-100", "conditions": "250 g ai/ha, Flood, applied to paddy water, evaluated after 13 days", "procedure,_shortened": "(§2)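 Compounds applied to standing paddy water (3 cm above soil, maintained for the test duration) on 2-leaf-stage plants; visual rating vs controls at 13 days, greenhouse.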"}, "[15]": {"tested_on": "ducksalad (Heteranthera limosa)", "assay": "Test B flooded paddy test, visual plant response rating 0-100", "conditions": "250 g ai/ha, Flood, applied to paddy water, evaluated after 13 days", "procedure,_shortened": "as §2"}, "[16]": {"tested_on": "barnyardgrass (Echinochloa crusgalli)", "assay": "Test B flooded paddy test, visual plant response rating 0-100", "conditions": "250 g ai/ha, Flood, applied to paddy water, evaluated after 13 days", "procedure,_shortened": "as §2"}, "rice (Oryza sativa)": {"tested_on": "rice (Oryza sativa)", "assay": "Test B flooded paddy test, visual plant response rating 0-100", "conditions": "250 g ai/ha, Flood, applied to paddy water, evaluated after 13 days", "procedure,_shortened": "as §2"}, "kochia (Bassia scoparia) [17]": {"tested_on": "kochia (Bassia scoparia)", "assay": "Test A preemergence soil spray, visual injury rating 0-100", "conditions": "10 days", "procedure,_shortened": "as §1"}, "soybean (Glycine max) [18]": {"tested_on": "soybean (Glycine max)", "assay": "Test A preemergence soil spray, visual injury rating 0-100", "conditions": "10 days", "procedure,_shortened": "as §1"}, "[19]": {"tested_on": "ragweed (common ragweed, Ambrosia artemisiifolia)", "assay": "Test A preemergence soil spray, visual injury rating 0-100", "conditions": "10 days", "procedure,_shortened": "as §1"}, "[20]": {"tested_on": "blackgrass (Alopecurus myosuroides)", "assay": "Test A preemergence soil spray, visual injury rating 0-100", "conditions": "10 days", "procedure,_shortened": "as §1"}, "[21]": {"tested_on": "wheat (Triticum aestivum)", "assay": "Test A preemergence soil spray, visual injury rating 0-100", "conditions": "10 days", "procedure,_shortened": "as §1"}, "[22]": {"tested_on": "palmer (palmer amaranth, palmer pigweed, Amaranthus palmeri)", "assay": "Test A preemergence soil spray, visual injury rating 0-100", "conditions": "10 days", "procedure,_shortened": "as §1"}, "[23]": {"tested_on": "barnyardgrass (Echinochloa crus-galli)", "assay": "Test A preemergence soil spray, visual injury rating 0-100", "conditions": "10 days", "procedure,_shortened": "as §1"}, "corn (Zea mays) [24]": {"tested_on": "corn (Zea mays)", "assay": "Test A preemergence soil spray, visual injury rating 0-100", "conditions": "10 days", "procedure,_shortened": "as §1"}, "[25]": {"tested_on": "green foxtail (Setaria viridis)", "assay": "Test A preemergence soil spray, visual injury rating 0-100", "conditions": "10 days", "procedure,_shortened": "as §1"}, "[26]": {"tested_on": "ryegrass, Italian (italian ryegrass, Lolium multiflorum)", "assay": "Test A preemergence soil spray, visual injury rating 0-100", "conditions": "10 days", "procedure,_shortened": "as §1"}, "[27]": {"tested_on": "oat, wild (wild oat, Avena fatua)", "assay": "Test A preemergence soil spray, visual injury rating 0-100", "conditions": "10 days", "procedure,_shortened": "as §1"}, "[28]": {"conditions": "62 g ai/ha, postemergence, 10 days, 0 = no effect, 100 = complete control"}, "[29]": {"conditions": "Postemergence, 16 g ai/ha, greenhouse 10 days, 0 no effect, 100 complete control"}, "[30]": {"conditions": "62 g ai/ha, 0 = no effect, 100 = complete control"}},
  "data": [
    {"smiles": "CC1(C(=O)NC2CC=C(C(=O)O)C2)CN(c2cc(Cl)cc(Cl)c2)C(=O)O1", "note": "(stereo not shown) [Compound 157]", "values": [
      {"measurement": "Galium plant response rating (0-100)", "setting": "[1]; [28]", "value": 70},
      {"measurement": "Galium plant response rating (0 to 100 scale)", "setting": "[1]; [29]", "value": 30},
      {"measurement": "Horseweed plant response rating (0-100)", "setting": "[2]; [28]", "value": 0},
      {"measurement": "Horseweed plant response rating (0 to 100 scale)", "setting": "[2]; [29]", "value": 0},
      {"measurement": "Kochia plant response rating (0-100)", "setting": "kochia (Bassia scoparia) [3]; [28]", "value": 60},
      {"measurement": "Kochia plant response rating (0 to 100 scale)", "setting": "kochia (Bassia scoparia) [3]; [29]", "value": 50},
      {"measurement": "Soybean plant response rating (0-100)", "setting": "soybean (Glycine max) [4]; [28]", "value": 60},
      {"measurement": "Soybean plant response rating (0 to 100 scale)", "setting": "soybean (Glycine max) [4]; [29]", "value": 40},
      {"measurement": "Ragweed plant response rating (0-100)", "setting": "[5]; [28]", "value": 30},
      {"measurement": "Ragweed plant response rating (0 to 100 scale)", "setting": "[5]; [29]", "value": 0},
      {"measurement": "Blackgrass plant response rating (0-100)", "setting": "[6]; [28]", "value": 30},
      {"measurement": "Blackgrass plant response rating (0 to 100 scale)", "setting": "[6]; [29]", "value": 0},
      {"measurement": "Wheat plant response rating (0-100)", "setting": "[7]; [28]", "value": 30},
      {"measurement": "Wheat plant response rating (0 to 100 scale)", "setting": "[7]; [29]", "value": 0},
      {"measurement": "Pigweed, Palmer plant response rating (0-100)", "setting": "[8]; [28]", "value": 50},
      {"measurement": "Pigweed, Palmer plant response rating (0 to 100 scale)", "setting": "[8]; [29]", "value": 0},
      {"measurement": "Barnyardgrass plant response rating (0-100)", "setting": "[9]; [28]", "value": 40},
      {"measurement": "Barnyardgrass plant response rating (0 to 100 scale)", "setting": "[9]; [29]", "value": 0},
      {"measurement": "Corn plant response rating (0-100)", "setting": "corn (Zea mays) [10]; [28]", "value": 0},
      {"measurement": "Corn plant response rating (0 to 100 scale)", "setting": "corn (Zea mays) [10]; [29]", "value": 0},
      {"measurement": "Foxtail, Green plant response rating (0-100)", "setting": "[11]; [28]", "value": 10},
      {"measurement": "Foxtail, Green plant response rating (0 to 100 scale)", "setting": "[11]; [29]", "value": 0},
      {"measurement": "Ryegrass, Italian plant response rating (0-100)", "setting": "[12]; [28]", "value": 60},
      {"measurement": "Ryegrass, Italian plant response rating (0 to 100 scale)", "setting": "[12]; [29]", "value": 0},
      {"measurement": "Oat, Wild plant response rating (0-100)", "setting": "[13]; [28]", "value": 0},
      {"measurement": "Oat, Wild plant response rating (0 to 100 scale)", "setting": "[13]; [29]", "value": 0},
      {"measurement": "Plant response rating, Sedge, Umbrella (0 to 100 scale, 0 is no effect and 100 is complete control)", "setting": "[14]", "value": 0},
      {"measurement": "Plant response rating, Ducksalad (0 to 100 scale, 0 is no effect and 100 is complete control)", "setting": "[15]", "value": 0},
      {"measurement": "Plant response rating, Barnyardgrass (0 to 100 scale, 0 is no effect and 100 is complete control)", "setting": "[16]", "value": 0},
      {"measurement": "Plant response rating, Rice (0 to 100 scale, 0 is no effect and 100 is complete control)", "setting": "rice (Oryza sativa)", "value": 0},
      {"measurement": "Kochia plant response rating", "setting": "kochia (Bassia scoparia) [17]; 16 g ai/ha, 0 to 100 scale", "value": 0},
      {"measurement": "Kochia plant response rating (0-100)", "setting": "kochia (Bassia scoparia) [17]; [30]", "value": 0},
      {"measurement": "Soybean plant response rating", "setting": "soybean (Glycine max) [18]; 16 g ai/ha, 0 to 100 scale", "value": 0},
      {"measurement": "Soybean plant response rating (0-100)", "setting": "soybean (Glycine max) [18]; [30]", "value": 0},
      {"measurement": "Ragweed plant response rating", "setting": "[19]; 16 g ai/ha, 0 to 100 scale", "value": 0},
      {"measurement": "Ragweed plant response rating (0-100)", "setting": "[19]; [30]", "value": 0},
      {"measurement": "Blackgrass plant response rating", "setting": "[20]; 16 g ai/ha, 0 to 100 scale", "value": 0},
      {"measurement": "Blackgrass plant response rating (0-100)", "setting": "[20]; [30]", "value": 0},
      {"measurement": "Wheat plant response rating", "setting": "[21]; 16 g ai/ha, 0 to 100 scale", "value": 0},
      {"measurement": "Wheat plant response rating (0-100)", "setting": "[21]; [30]", "value": 0},
      {"measurement": "Pigweed, Palmer plant response rating", "setting": "[22]; 16 g ai/ha, 0 to 100 scale", "value": 0},
      {"measurement": "Pigweed, Palmer plant response rating (0-100)", "setting": "[22]; [30]", "value": 0},
      {"measurement": "Barnyardgrass plant response rating", "setting": "[23]; 16 g ai/ha, 0 to 100 scale", "value": 0},
      {"measurement": "Barnyardgrass plant response rating (0-100)", "setting": "[23]; [30]", "value": 30},
      {"measurement": "Corn plant response rating", "setting": "corn (Zea mays) [24]; 16 g ai/ha, 0 to 100 scale", "value": 0},
      {"measurement": "Corn plant response rating (0-100)", "setting": "corn (Zea mays) [24]; [30]", "value": 0},
      {"measurement": "Foxtail, Green plant response rating", "setting": "[25]; 16 g ai/ha, 0 to 100 scale", "value": 0},
      {"measurement": "Foxtail, Green plant response rating (0-100)", "setting": "[25]; [30]", "value": 0},
      {"measurement": "Ryegrass, Italian plant response rating", "setting": "[26]; 16 g ai/ha, 0 to 100 scale", "value": 0},
      {"measurement": "Ryegrass, Italian plant response rating (0-100)", "setting": "[26]; [30]", "value": 0},
      {"measurement": "Oat, Wild plant response rating", "setting": "[27]; 16 g ai/ha, 0 to 100 scale", "value": 0},
      {"measurement": "Oat, Wild plant response rating (0-100)", "setting": "[27]; [30]", "value": 0}
    ]}
  ]
}
